Patent US20040259764A1, “Reticulocyte depletion signatures” (priority 2002, published 2004)
Like-named read-outs stand apart in the source and are kept apart here. Marks after values point to notes of the source that are not given here.

Assays:
[1] = test system: Reticulocyte Depletion Signature (Alas2 and peripherin probes), liver
Text: (§1) Compound dosing was based on the acute dose LD50s recorded in published reference or literature sources. […] The MTD (maximum tolerated dose) was then selected as the dose at which the animals […] 5-10% body weight during the 5-day range finding study. […] In addition, the clinical observations must show no or mild clinical signs during the whole of the range-finding study. At the next highest dose, signs and symptoms of adverse effects and exceeding those of the MTD should be seen to occur. Should these criteria not be met, the range-finding study is repeated using a modified dose range.
(§2) After determination of the MTD and FED for a compound, each compound was dissolved in a vehicle for administration on day 1 of the study (additional daily doses were stored as frozen aliquots from this initial formulation). Each compound was administered to three individual male Sprague-Dawley rats for each of the two doses (MTD and FED) for one of four different times (0.25 day, 1 day, 3 days, and 5 days), yielding a total of up to 24 animals per compound study. Vehicle choice was based on solubility of the compound, effect of food on adsorption, and the vehicles used in the literature reports examined during the FED selection investigations, described above. Generally, the route and vehicle in which the FED was defined are used. When there was a choice of routes and vehicles, oral routes were chosen over injection routes. Many compounds, especially oncolytics, are only administerable intravenously. In such cases, the compound was administered as an intravenous formulation into the tail vein. Orally administered compounds were given dissolved in either water, 1% carboxymethycellulose (CMC) or corn oil. Intravenously and intraperitoneally administered compounds were given in 0.9% saline. Subcutaneously administered compounds were given in corn oil. Animal body weights were determined at 1 day and, where appropriate, at 4 days, before necropsy, and clinical observations were made on a daily basis. Control animals were dosed with vehicle only. Three male animals were used for each dose and time combination used for the compound treatment.
(§3) Tissue harvest and handling: After the allocated treatment time, the tissues from the animals were harvested. […] All the tissues collected were divided to provide samples for histopathological analyses, and the remainder of each tissue was then snap-frozen.
(§4) Preparation of enriched mRNA: Punch biopsies were taken from the frozen tissues and were completely homogenized before being processed using the MagNA Pure robot. (Roche Diagnostics Corp., Indianapolis, Ind.) in combination with the MagNA Pure LC RNA Isolation kit II (Roche Diagnostics Corp). The amount of lysis buffer was adjusted to allow 1 ml per 50 mg for liver tissue, or 1 ml per 80 mg for all other tissues. After complete homogenization and before loading of the samples into the 32-well MagNA Pure plate, the samples were syringed 5-6 times using a 20-gauge 3-ml syringe to ensure a smooth solution for robotic processing. Tissue sample processing was performed in duplicate wells (loading 150 μl of homogenized sample and 150 μl of additional lysis buffere to each well) of the MagNA Pure LC, which is programmed to extract mRNA using oligo-dT selection technology into a final elution volume of 100 μl. Poly A(+) RNA sample concentration was performed using a standard ethanol precipitation protocol in the presence of glycogen (50 μg/ml). After precipitation the final purified mRNA sample was resuspended in 7 μl DEPC-treated water and quantified using a Ribogreen high-range assay (Molecular Probes) on the Victor-Wallace II Fluorometer (Perkin-Elmer).

[2] = test system: Reticulocyte Depletion Signature (Alas2 and peripherin probes), bone marrow
Text: as §1, §2, §3, §4

[3] = test system: Reticulocyte Depletion Signature (Alas2 and peripherin probes), spleen
Text: as §1, §2, §3, §4

[4] = bone marrow data, signature derived from liver, * = p < 0.01
[5] = liver data, highest training treatment normalised to 100, * = p < 0.01
[6] = spleen data, signature derived from liver, * = p < 0.01

## C#C[C@]1(O)CC[C@H]2[C@@H]3CCc4cc(O)ccc4[C@H]3CC[C@@]21C [ETHINYLESTRADIOL]
[1]; rat, in vivo
  Signature Projection Score (SPS): 75*

## CCC1=C[C@@H]2CN(C1)Cc1c([nH]c3ccccc13)[C@@](C(=O)OC)(c1cc3c(cc1OC)N(C)[C@H]1[C@@](O)(C(=O)OC)[C@H](OC(C)=O)[C@]4(CC)C=CCN5CC[C@]31[C@@H]54)C2 [VINORELBINE]
[2]; rat, in vivo
  SPS (Bone Marrow): 132*

## Clc1ccc(COC(Cn2ccnc2)c2ccc(Cl)cc2Cl)c(Cl)c1 (centres unmarked) [MICONAZOLE]
[1]; rat, in vivo
  Signature Projection Score (SPS): 38

## C[C@H]1O[C@@H](n2cc(F)c(=O)[nH]c2=O)[C@H](O)[C@@H]1O [DOXIFLURIDINE]
[2]; rat, in vivo
  SPS (Bone Marrow): 0

## CC(=O)N1CCN(c2ccc(OCC3COC(Cn4ccnc4)(c4ccc(Cl)cc4Cl)O3)cc2)CC1 (centres unmarked) [KETOCONAZOLE]
[1]; rat, in vivo
  Signature Projection Score (SPS): 29

## O=C(O)CCCc1ccc(N(CCCl)CCCl)cc1 [CHLORAMBUCIL]
[2]; [4]
  SPS (Bone Marrow): 0
[1]; [5]
  Signature Projection Score (SPS): 33
[3]; [6]
  SPS (Spleen): 0

## C[C@]12CC[C@@H]3c4ccc(O)cc4CC[C@H]3[C@@H]1CC[C@@H]2O [BETA ESTRADIOL]
[1]; [5]
  Signature Projection Score (SPS): 27

## CC(C)(Oc1ccc(CCNC(=O)c2ccc(Cl)cc2)cc1)C(=O)O [BEZAFIBRATE]
[1]; rat, in vivo
  Signature Projection Score (SPS): 16

## C[C@@H]1C[C@H]2[C@@H]3CCC4=CC(=O)C=C[C@]4(C)[C@@]3(F)[C@@H](O)C[C@]2(C)[C@@]1(O)C(=O)CO [DEXAMETHASONE]
[1]; rat, in vivo
  Signature Projection Score (SPS): 22

## S=C=Nc1cccc2ccccc12 [1-NAPHTHYL ISOTHIOCYANATE]
[2]; [4]
  SPS (Bone Marrow): 0

## CC(C)n1c(/C=C/C(O)CC(O)CC(=O)O)c(-c2ccc(F)cc2)c2ccccc21 (centres unmarked) [FLUVASTATIN]
[1]; rat, in vivo
  Signature Projection Score (SPS): 0

## Cc1ccc(C)c(OCCCC(C)(C)C(=O)O)c1 [GEMFIBROZIL]
[1]; rat, in vivo
  Signature Projection Score (SPS): 18

## C[C@]12CCC(=O)C=C1CC[C@@H]1[C@@H]2CC[C@@]2(C)[C@H]1CC[C@]2(C)O [17-METHYLTESTOSTERONE]
[1]; [5]
  Signature Projection Score (SPS): 59*

## COc1cccc2c1C(=O)c1c(O)c3c(c(O)c1C2=O)C[C@@](O)(C(C)=O)C[C@@H]3O[C@H]1C[C@H](N)[C@H](O)[C@H](C)O1 [DAUNORUBICIN]
[2]; [4]
  SPS (Bone Marrow): 0

## O=C1[O][Pt]2([NH][C@@H]3CCCC[C@H]3[NH]2)[O]C1=O [OXALIPLATIN]
[2]; [4]
  SPS (Bone Marrow): 18

## CC(C)c1c(C(=O)Nc2ccccc2)c(-c2ccccc2)c(-c2ccc(F)cc2)n1CC[C@@H](O)C[C@@H](O)CC(=O)O [ATORVASTATIN]
[1]; rat, in vivo
  Signature Projection Score (SPS): 29

## O=NN(CCCl)C(=O)NCCCl [CARMUSTINE]
[2]; [4]
  SPS (Bone Marrow): 0
[1]; [5]
  Signature Projection Score (SPS): 42
[3]; [6]
  SPS (Spleen): 0

## CC#C[C@]1(O)CC[C@H]2[C@@H]3CCC4=CC(=O)CCC4=C3[C@@H](c3ccc(N(C)C)cc3)C[C@@]21C [MIFEPRISTONE]
[1]; rat, in vivo
  Signature Projection Score (SPS): 24

## CC[C@]1(O)C[C@@H]2CN(CCc3c([nH]c4ccccc34)[C@@](C(=O)OC)(c3cc4c(cc3OC)N(C)[C@H]3[C@@](O)(C(=O)OC)[C@H](OC(C)=O)[C@]5(CC)C=CCN6CC[C@]43[C@@H]65)C2)C1 [VINBLASTINE]
[2]; rat, in vivo
  SPS (Bone Marrow): 0

## N.N.O=C([O-])C1(C(=O)[O-])CCC1.[Pt+2] [CARBOPLATIN]
[2]; [4]
  SPS (Bone Marrow): 0
[3]; [6]
  SPS (Spleen): 0

## CC(C)(c1ccc(O)cc1)c1ccc(O)cc1 [BISPHENOL A]
[2]; rat, in vivo
  SPS (Bone Marrow): 0
[3]; rat, in vivo
  SPS (Spleen): 0

## Cc1oncc1C(=O)Nc1ccc(C(F)(F)F)cc1 [LEFLUNOMIDE]
[2]; rat, in vivo
  SPS (Bone Marrow): 0
[1]; rat, in vivo
  Signature Projection Score (SPS): 22
[3]; rat, in vivo
  SPS (Spleen): 71*

## O=NN(CCCl)C(=O)NC1CCCCC1 [LOMUSTINE]
[2]; [4]
  SPS (Bone Marrow): 0
[1]; [5]
  Signature Projection Score (SPS): 18
[3]; [6]
  SPS (Spleen): 0

## CN(Cc1cnc2nc(N)nc(N)c2n1)c1ccc(C(=O)N[C@@H](CCC(=O)O)C(=O)O)cc1 [METHOTREXATE]
[2]; rat, in vivo
  SPS (Bone Marrow): 0
[1]; rat, in vivo
  Signature Projection Score (SPS): 72*
[3]; rat, in vivo
  SPS (Spleen): 148*

## N.N.[Cl][Pt][Cl] [CISPLATIN]
[2]; [4]
  SPS (Bone Marrow): 0
[3]; [6]
  SPS (Spleen): 0

## CS(=O)(=O)OCCCCOS(C)(=O)=O [BUSULFAN]
[2]; rat, in vivo
  SPS (Bone Marrow): 0
[1]; rat, in vivo
  Signature Projection Score (SPS): 43
[3]; rat, in vivo
  SPS (Spleen): 34

## CC1=C(/C=C/C(C)=C/C=C/C(C)=C\C(=O)O)C(C)(C)CCC1 [ISOTRETINOIN]
[1]; rat, in vivo
  Signature Projection Score (SPS): 23

## COc1c(C)c2c(c(O)c1C/C=C(\C)CCC(=O)OCCN1CCOCC1)C(=O)OC2 [MYCOPHENOLATE MOFETIL]
[2]; [4]
  SPS (Bone Marrow): 0

## C[C@]12CC[C@@H]3c4ccc(O)cc4CC[C@H]3[C@@H]1C[C@@H](O)[C@@H]2O [ESTRIOL]
[1]; rat, in vivo
  Signature Projection Score (SPS): 41

## CC/C(=C(/CC)c1ccc(O)cc1)c1ccc(O)cc1 [DIETHYLSTILBESTROL]
[2]; rat, in vivo
  SPS (Bone Marrow): 0
[1]; rat, in vivo
  Signature Projection Score (SPS): 33
[3]; rat, in vivo
  SPS (Spleen): 88*

## CC[C@]1(O)C[C@H]2CN(CCc3c([nH]c4ccccc34)[C@@](C(=O)OC)(c3cc4c(cc3OC)N(C=O)[C@H]3[C@@](O)(C(=O)OC)[C@H](OC(C)=O)[C@]5(CC)C=CCN6CC[C@]43[C@@H]65)C2)C1 [VINCRISTINE]
[2]; rat, in vivo
  SPS (Bone Marrow): 126*

## CC[C@H](C)C(=O)O[C@H]1C[C@@H](C)C=C2C=C[C@H](C)[C@H](CC[C@@H]3C[C@@H](O)CC(=O)O3)[C@H]21 [LOVASTATIN]
[1]; rat, in vivo
  Signature Projection Score (SPS): 26

## ClC(Cl)(Cl)Cl [CARBON TETRACHLORIDE]
[2]; [4]
  SPS (Bone Marrow): 0

## CN(C)C=O [N,N-DIMETHYLFORMAMIDE]
[2]; [4]
  SPS (Bone Marrow): 0
[3]; [6]
  SPS (Spleen): 0

## CCN(CC)N=O [N-NITROSODIETHYLAMINE]
[2]; [4]
  SPS (Bone Marrow): 0
[3]; [6]
  SPS (Spleen): 0

## OC(Cn1cncn1)(Cn1cncn1)c1ccc(F)cc1F [FLUCONAZOLE]
[1]; rat, in vivo
  Signature Projection Score (SPS): 26

## Oc1c(Cl)cc(Cl)cc1Sc1cc(Cl)cc(Cl)c1O [BITHIONOL]
[2]; rat, in vivo
  SPS (Bone Marrow): 0
[3]; rat, in vivo
  SPS (Spleen): 27

## C#C[C@]1(OC(C)=O)CC[C@H]2[C@@H]3CCC4=CC(=O)CC[C@@H]4[C@H]3CC[C@@]21C [NORETHINDRONE ACETATE]
[1]; rat, in vivo
  Signature Projection Score (SPS): 26

## O=C(c1ccc(OCCN2CCCCC2)cc1)c1c(-c2ccc(O)cc2)sc2cc(O)ccc12 [RALOXIFENE]
[1]; rat, in vivo
  Signature Projection Score (SPS): 23

## CCO [ETHANOL]
[2]; rat, in vivo
  SPS (Bone Marrow): 0

## CN(C)c1nc(N(C)C)nc(N(C)C)n1 [ALTRETAMINE]
[2]; rat, in vivo
  SPS (Bone Marrow): 0
[3]; rat, in vivo
  SPS (Spleen): 0
